Converted amounts (≈) assume the structure as drawn.
Assays:
Type in all cases: functional
Candida parapsilosis = test: Antifungal activity against Candida parapsilosis 22019 by NCCLS protocol based broth microdilution assay; details: Lodderomyces parapsilosis
Cryptococcus neoformans = test: Antifungal activity against Cryptococcus neoformans 32605 by NCCLS protocol based broth microdilution assay
Nannizzia gypsea = test: Antifungal activity against Microsporum gypseum CMCC by NCCLS protocol based broth microdilution assay
Candida albicans [1] = test: Antifungal activity against Candida albicans SC5314 by NCCLS protocol based broth microdilution assay
Candida albicans [2] = test: Antifungal activity against Candida albicans Y0109 by NCCLS protocol based broth microdilution assay
Nakaseomyces glabratus = test: Antifungal activity against Candida glabrata 537 by NCCLS protocol based broth microdilution assay
Aspergillus fumigatus = test: Antifungal activity against Aspergillus fumigatus 7544 by NCCLS protocol based broth microdilution assay
Candida albicans [3] = test: Antifungal activity against fluconazole-resistant Candida albicans isolate 100 by NCCLS protocol based broth microdilution method
Candida albicans [4] = test: Antifungal activity against fluconazole-resistant Candida albicans isolate 103 by NCCLS protocol based broth microdilution method

Row | SMILES | MIC (Candida parapsilosis) | MIC (Cryptococcus neoformans) | MIC (Nannizzia gypsea) | MIC (Candida albicans [1]) | MIC (Candida albicans [2]) | MIC (Nakaseomyces glabratus) | MIC (Aspergillus fumigatus) | MIC (Candida albicans [3]) | MIC (Candida albicans [4])
1 | C[C@@H](n1nnc2cc(F)c(F)cc2c1=O)[C@](O)(Cn1cncn1)c1ccc(F)cc1F | 0.0313 µg/mL (≈ 0.0721 µM) | 0.5 µg/mL (≈ 1.15 µM) | 1 µg/mL (≈ 2.3 µM) | 0.0313 µg/mL (≈ 0.0721 µM) | 0.0156 µg/mL (≈ 0.0359 µM) | 0.0625 µg/mL (≈ 0.144 µM) | 2 µg/mL (≈ 4.6 µM) | – | –
2 | Cc1ccc2c(=O)n([C@H](C)[C@](O)(Cn3cncn3)c3ccc(F)cc3F)nnc2c1 | 0.0313 µg/mL (≈ 0.0759 µM) | 0.125 µg/mL (≈ 0.303 µM) | 2 µg/mL (≈ 4.85 µM) | 0.0156 µg/mL (≈ 0.0378 µM) | 0.0156 µg/mL (≈ 0.0378 µM) | 0.0156 µg/mL (≈ 0.0378 µM) | 2 µg/mL (≈ 4.85 µM) | – | –
3 | C[C@@H](n1nnc2c(ccc3ccccc32)c1=O)[C@](O)(Cn1cncn1)c1ccc(F)cc1F | – | 0.5 µg/mL (≈ 1.11 µM) | – | 0.125 µg/mL (≈ 0.279 µM) | – | – | > 64 µg/mL | – | –
4 | C[C@@H](n1nnc2c(F)cccc2c1=O)[C@](O)(Cn1cncn1)c1ccc(F)cc1F | – | 0.0313 µg/mL (≈ 0.0752 µM) | – | 0.5 µg/mL (≈ 1.2 µM) | – | – | > 64 µg/mL | – | –
5 | C[C@@H](n1nnc2cc(C(F)(F)F)ccc2c1=O)[C@](O)(Cn1cncn1)c1ccc(F)cc1F | 0.0313 µg/mL (≈ 0.0671 µM) | 0.125 µg/mL (≈ 0.268 µM) | 2 µg/mL (≈ 4.29 µM) | 0.0156 µg/mL (≈ 0.0334 µM) | 0.0156 µg/mL (≈ 0.0334 µM) | 0.0313 µg/mL (≈ 0.0671 µM) | 4 µg/mL (≈ 8.58 µM) | – | –
6 | OC(Cn1cncn1)(Cn1cncn1)c1ccc(F)cc1F [FLUCONAZOLE] | 1 µg/mL (≈ 3.27 µM) | 0.5 µg/mL (≈ 1.63 µM) | 32 µg/mL (≈ 104 µM) | 0.5 µg/mL (≈ 1.63 µM) | 0.5 µg/mL (≈ 1.63 µM) | 2 µg/mL (≈ 6.53 µM) | > 64 µg/mL | > 64 µg/mL | > 64 µg/mL
7 | C[C@@H](n1nnc2cc(F)ccc2c1=O)[C@](O)(Cn1cncn1)c1ccc(F)cc1F | 0.0313 µg/mL (≈ 0.0752 µM) | 0.25 µg/mL (≈ 0.6 µM) | 2 µg/mL (≈ 4.8 µM) | 0.0156 µg/mL (≈ 0.0375 µM) | 0.0156 µg/mL (≈ 0.0375 µM) | 0.0313 µg/mL (≈ 0.0752 µM) | 1 µg/mL (≈ 2.4 µM) | 32 µg/mL (≈ 76.9 µM) | 64 µg/mL (≈ 154 µM)
8 | C[C@@H](n1nnc2c(Br)cccc2c1=O)[C@](O)(Cn1cncn1)c1ccc(F)cc1F | – | 0.25 µg/mL (≈ 0.524 µM) | – | 0.5 µg/mL (≈ 1.05 µM) | – | – | > 64 µg/mL | – | –
9 | Cc1ccc2nnn([C@H](C)[C@](O)(Cn3cncn3)c3ccc(F)cc3F)c(=O)c2c1 | – | 0.25 µg/mL (≈ 0.606 µM) | – | 0.0625 µg/mL (≈ 0.152 µM) | – | – | 16 µg/mL (≈ 38.8 µM) | – | –
10 | C[C@@H](n1nnc2cccc(F)c2c1=O)[C@](O)(Cn1cncn1)c1ccc(F)cc1F | – | 0.0625 µg/mL (≈ 0.15 µM) | – | 0.5 µg/mL (≈ 1.2 µM) | – | – | > 64 µg/mL | – | –
11 | C[C@@H](n1nnc2ccccc2c1=O)[C@](O)(Cn1cncn1)c1ccc(F)cc1F | 0.0313 µg/mL (≈ 0.0786 µM) | 0.25 µg/mL (≈ 0.628 µM) | 2 µg/mL (≈ 5.02 µM) | 0.0313 µg/mL (≈ 0.0786 µM) | 0.0156 µg/mL (≈ 0.0392 µM) | 0.0625 µg/mL (≈ 0.157 µM) | 4 µg/mL (≈ 10 µM) | – | –
12 | C[C@@H](c1ncncc1F)[C@](O)(Cn1cncn1)c1ccc(F)cc1F [VORICONAZOLE] | 0.0156 µg/mL (≈ 0.0447 µM) | 0.0625 µg/mL (≈ 0.179 µM) | 0.25 µg/mL (≈ 0.716 µM) | 0.0313 µg/mL (≈ 0.0896 µM) | 0.0156 µg/mL (≈ 0.0447 µM) | 0.0156 µg/mL (≈ 0.0447 µM) | 0.25 µg/mL (≈ 0.716 µM) | > 64 µg/mL | > 64 µg/mL
13 | C[C@@H](n1nnc2ccc(C(F)(F)F)cc2c1=O)[C@](O)(Cn1cncn1)c1ccc(F)cc1F | – | 2 µg/mL (≈ 4.29 µM) | – | 0.25 µg/mL (≈ 0.536 µM) | – | – | > 64 µg/mL | – | –
14 | C[C@@H](n1nnc2cc(Cl)c(F)cc2c1=O)[C@](O)(Cn1cncn1)c1ccc(F)cc1F | – | 0.25 µg/mL (≈ 0.555 µM) | – | 0.125 µg/mL (≈ 0.277 µM) | – | – | 8 µg/mL (≈ 17.7 µM) | – | –
15 | C[C@@H](n1nnc2ccc(Cl)cc2c1=O)[C@](O)(Cn1cncn1)c1ccc(F)cc1F | – | 0.5 µg/mL (≈ 1.16 µM) | – | 0.0313 µg/mL (≈ 0.0723 µM) | – | – | > 64 µg/mL | – | –
16 | C[C@@H](n1nnc2cc(Cl)ccc2c1=O)[C@](O)(Cn1cncn1)c1ccc(F)cc1F | 0.0156 µg/mL (≈ 0.036 µM) | 0.0313 µg/mL (≈ 0.0723 µM) | 0.25 µg/mL (≈ 0.578 µM) | 0.0156 µg/mL (≈ 0.036 µM) | 0.0156 µg/mL (≈ 0.036 µM) | 0.0156 µg/mL (≈ 0.036 µM) | 0.25 µg/mL (≈ 0.578 µM) | 8 µg/mL (≈ 18.5 µM) | 2 µg/mL (≈ 4.62 µM)
17 | C[C@@H](n1nnc2ccc([N+](=O)[O-])cc2c1=O)[C@](O)(Cn1cncn1)c1ccc(F)cc1F | – | 2 µg/mL (≈ 4.51 µM) | – | 0.5 µg/mL (≈ 1.13 µM) | – | – | > 64 µg/mL | – | –
18 | C[C@@H](n1nnc2ccc(F)cc2c1=O)[C@](O)(Cn1cncn1)c1ccc(F)cc1F | – | 0.25 µg/mL (≈ 0.6 µM) | – | 0.0625 µg/mL (≈ 0.15 µM) | – | – | 16 µg/mL (≈ 38.4 µM) | – | –
19 | C[C@@H](n1nnc2cccc(Br)c2c1=O)[C@](O)(Cn1cncn1)c1ccc(F)cc1F | – | 0.0625 µg/mL (≈ 0.131 µM) | – | 0.25 µg/mL (≈ 0.524 µM) | – | – | 32 µg/mL (≈ 67 µM) | – | –
20 | C[C@@H](n1nnc2cccc(Cl)c2c1=O)[C@](O)(Cn1cncn1)c1ccc(F)cc1F | – | 0.0625 µg/mL (≈ 0.144 µM) | – | 0.25 µg/mL (≈ 0.578 µM) | – | – | 32 µg/mL (≈ 73.9 µM) | – | –
21 | COc1ccc2nnn([C@H](C)[C@](O)(Cn3cncn3)c3ccc(F)cc3F)c(=O)c2c1 | – | 1 µg/mL (≈ 2.33 µM) | – | 0.0625 µg/mL (≈ 0.146 µM) | – | – | 32 µg/mL (≈ 74.7 µM) | – | –
22 | C[C@@H](n1nnc2ccc(Br)cc2c1=O)[C@](O)(Cn1cncn1)c1ccc(F)cc1F | – | 2 µg/mL (≈ 4.19 µM) | – | 0.125 µg/mL (≈ 0.262 µM) | – | – | > 64 µg/mL | – | –
23 | C[C@@H](n1nnc2ccc(I)cc2c1=O)[C@](O)(Cn1cncn1)c1ccc(F)cc1F | – | 0.5 µg/mL (≈ 0.954 µM) | – | 0.125 µg/mL (≈ 0.238 µM) | – | – | 32 µg/mL (≈ 61 µM) | – | –
24 | C[C@@H](n1nnc2cc(I)ccc2c1=O)[C@](O)(Cn1cncn1)c1ccc(F)cc1F | 0.0625 µg/mL (≈ 0.119 µM) | 0.125 µg/mL (≈ 0.238 µM) | 1 µg/mL (≈ 1.91 µM) | 0.0156 µg/mL (≈ 0.0298 µM) | 0.0156 µg/mL (≈ 0.0298 µM) | 0.0313 µg/mL (≈ 0.0597 µM) | 1 µg/mL (≈ 1.91 µM) | > 64 µg/mL | > 64 µg/mL
25 | C[C@@H](n1nnc2c(Cl)cccc2c1=O)[C@](O)(Cn1cncn1)c1ccc(F)cc1F | – | 0.25 µg/mL (≈ 0.578 µM) | – | 0.25 µg/mL (≈ 0.578 µM) | – | – | > 64 µg/mL | – | –
26 | C[C@@H](n1cnc2cc(Cl)ccc2c1=O)[C@](O)(Cn1cncn1)c1ccc(F)cc1F [ALBACONAZOLE] | 0.0156 µg/mL (≈ 0.0361 µM) | 0.0313 µg/mL (≈ 0.0725 µM) | 1 µg/mL (≈ 2.32 µM) | 0.0313 µg/mL (≈ 0.0725 µM) | 0.0156 µg/mL (≈ 0.0361 µM) | 0.0625 µg/mL (≈ 0.145 µM) | 0.25 µg/mL (≈ 0.579 µM) | 8 µg/mL (≈ 18.5 µM) | 4 µg/mL (≈ 9.26 µM)
27 | C[C@@H](n1nnc2cc([N+](=O)[O-])ccc2c1=O)[C@](O)(Cn1cncn1)c1ccc(F)cc1F | 0.0313 µg/mL (≈ 0.0706 µM) | 0.25 µg/mL (≈ 0.564 µM) | 4 µg/mL (≈ 9.02 µM) | 0.0156 µg/mL (≈ 0.0352 µM) | 0.0156 µg/mL (≈ 0.0352 µM) | 0.0313 µg/mL (≈ 0.0706 µM) | 4 µg/mL (≈ 9.02 µM) | – | –
28 | C[C@@H](n1nnc2cc(Br)ccc2c1=O)[C@](O)(Cn1cncn1)c1ccc(F)cc1F | 0.0313 µg/mL (≈ 0.0656 µM) | 0.0625 µg/mL (≈ 0.131 µM) | 0.5 µg/mL (≈ 1.05 µM) | 0.0156 µg/mL (≈ 0.0327 µM) | 0.0156 µg/mL (≈ 0.0327 µM) | 0.0156 µg/mL (≈ 0.0327 µM) | 0.5 µg/mL (≈ 1.05 µM) | 16 µg/mL (≈ 33.5 µM) | 32 µg/mL (≈ 67 µM)
29 | COc1ccc2c(=O)n([C@H](C)[C@](O)(Cn3cncn3)c3ccc(F)cc3F)nnc2c1 | 0.0313 µg/mL (≈ 0.0731 µM) | 0.125 µg/mL (≈ 0.292 µM) | 2 µg/mL (≈ 4.67 µM) | 0.0156 µg/mL (≈ 0.0364 µM) | 0.0156 µg/mL (≈ 0.0364 µM) | 0.0156 µg/mL (≈ 0.0364 µM) | 2 µg/mL (≈ 4.67 µM) | – | –

Reference: ChEMBL document CHEMBL4610054, “Design, synthesis, and structure-activity relationship studies of novel triazole agents with strong antifungal activity against Aspergillus fumigatus” (2020)
